{"source": "patent US10561658B2", "about": "“Thieno- and pyrrolopyrimidine analogues as anticancer agents and methods of use thereof” (UNIVERSITY OF MARYLAND, BALTIMORE COUNTY, priority 2015, dated 2020)", "key": {"[1]": {"system": "MDA-MB-231 cells", "test": "Apoptosis (annexin V), MDA-MB-231", "format": "cell-based, human", "conditions": "MDA-MB-231, tested concentration", "description": "Cell-cycle and apoptosis studies were conducted in MDA-MB-231 cells. Cell-cycle analysis of compound 19 at 15 μM concentration lead to arrest of 60% cells in G2/M stage. Similarly, at 1.75 μM concentration, compound 20 arrested 30% of cells in G2/M stage. […] To evaluate the possible mechanism for arrest of cell proliferation, cell-cycle distribution was measured using propidium iodide staining and flow cytometry. […] There are several possibilities that could account for this, including: (i) that cell lysis occurs rapidly following induction of apoptosis, preventing significant accumulation of annexin V-positive bodies, or (ii) that a distinct cell death pathway is triggered by compound 19."}, "[2]": {"system": "human cervix carcinoma HeLa cells", "test": "Cell proliferation assay, HeLa", "format": "cell-based", "conditions": "72 h proliferation, Coulter counter", "description": "Cell proliferation assays for several of the compounds were performed on L1210, a mouse lymphocytic leukemia cell line; CCRF-CEM [39] an acute lymphoblastic leukemia cell line; and HeLa, a human cancer cell line derived from a human cervical adenocarcinoma. Murine Leukemia L1210, human lymphocytic CEM and human cervix carcinoma HeLa cells were obtained from the American Type Culture Collection (ATCC) (Rockville, Md.). All assays were performed in 96-well microtiter plates. To each well were added (5-7.5)×10^4 tumor cells and a given amount of the test compound. The cells were allowed to proliferate for 48 h (murine leukemia L1210 cells) or 72 h (human lymphocytic CEM and human cervix carcinoma HeLa cells) at 37° C. in a humidified CO2-controlled atmosphere. At the end of the incubation period, the cells were counted in a Coulter counter. The IC50 (50% inhibitory concentration) was defined as the concentration of the compound that inhibited cell proliferation by 50%. […] Presence of C7 iodine on the 2,4-dichloro pyrrolo[3,2-d] (compound 20) increases the anticancer activity by a factor of 5 when compared to compound 19. […] This alludes to a) importance of C7-I towards activity against cancer cell lines for the 2,4-O-benzylated analogues (15 and 16)."}, "[3]": {"system": "susceptible fungal strains", "test": "Antifungal MIC95 comparison on susceptible fungal strains", "format": "cell-based", "conditions": "MIC95, Table 3 fungal strains", "description": "Evaluation of antimicrobial activity in vitro. Compounds were tested against the following panel of bacteria and fungi purchased from the American Type Culture Collection (ATCC). Briefly, bacteria were grown to mid-log phase, diluted with fresh medium to an optical density at 600 nm (OD600) of 0.030-0.060 and then diluted again 1:10. This suspension (195 μL) was added to wells in a 96 well microtiter plate (Sarstedt) and 5 μL of compound dissolved in DMSO was added to give a final concentration of 100-0.1 μM at 2.5% DMSO by volume. A DMSO negative control and standard antibiotic positive controls were included in each plate. All compounds were tested in triplicate for each concentration. Plates were sealed with parafilm, placed in a Ziploc bag to prevent evaporation, and incubated at 30° C. (fungi) or 37° C. (bacteria) for 16-20 hours (48 hours for C. neoformans). The OD600 values for each well were determined with a plate reader (Biotek, EL800) and the data were standardized to the DMSO control wells after subtracting the background from blank medium. Initial single concentrations were tested at 100 μM and active compounds were further tested with at least nine concentrations for a full dose response. Dose response curves were generated using GraphPad Prism 5 software and used to determine the MIC95 concentrations (minimal concentration that inhibits 95% of growth). […]"}, "[4]": {"target": "PIK3C2A (Homo sapiens, UniProt O00443)", "sequence (O00443 whole entry)": "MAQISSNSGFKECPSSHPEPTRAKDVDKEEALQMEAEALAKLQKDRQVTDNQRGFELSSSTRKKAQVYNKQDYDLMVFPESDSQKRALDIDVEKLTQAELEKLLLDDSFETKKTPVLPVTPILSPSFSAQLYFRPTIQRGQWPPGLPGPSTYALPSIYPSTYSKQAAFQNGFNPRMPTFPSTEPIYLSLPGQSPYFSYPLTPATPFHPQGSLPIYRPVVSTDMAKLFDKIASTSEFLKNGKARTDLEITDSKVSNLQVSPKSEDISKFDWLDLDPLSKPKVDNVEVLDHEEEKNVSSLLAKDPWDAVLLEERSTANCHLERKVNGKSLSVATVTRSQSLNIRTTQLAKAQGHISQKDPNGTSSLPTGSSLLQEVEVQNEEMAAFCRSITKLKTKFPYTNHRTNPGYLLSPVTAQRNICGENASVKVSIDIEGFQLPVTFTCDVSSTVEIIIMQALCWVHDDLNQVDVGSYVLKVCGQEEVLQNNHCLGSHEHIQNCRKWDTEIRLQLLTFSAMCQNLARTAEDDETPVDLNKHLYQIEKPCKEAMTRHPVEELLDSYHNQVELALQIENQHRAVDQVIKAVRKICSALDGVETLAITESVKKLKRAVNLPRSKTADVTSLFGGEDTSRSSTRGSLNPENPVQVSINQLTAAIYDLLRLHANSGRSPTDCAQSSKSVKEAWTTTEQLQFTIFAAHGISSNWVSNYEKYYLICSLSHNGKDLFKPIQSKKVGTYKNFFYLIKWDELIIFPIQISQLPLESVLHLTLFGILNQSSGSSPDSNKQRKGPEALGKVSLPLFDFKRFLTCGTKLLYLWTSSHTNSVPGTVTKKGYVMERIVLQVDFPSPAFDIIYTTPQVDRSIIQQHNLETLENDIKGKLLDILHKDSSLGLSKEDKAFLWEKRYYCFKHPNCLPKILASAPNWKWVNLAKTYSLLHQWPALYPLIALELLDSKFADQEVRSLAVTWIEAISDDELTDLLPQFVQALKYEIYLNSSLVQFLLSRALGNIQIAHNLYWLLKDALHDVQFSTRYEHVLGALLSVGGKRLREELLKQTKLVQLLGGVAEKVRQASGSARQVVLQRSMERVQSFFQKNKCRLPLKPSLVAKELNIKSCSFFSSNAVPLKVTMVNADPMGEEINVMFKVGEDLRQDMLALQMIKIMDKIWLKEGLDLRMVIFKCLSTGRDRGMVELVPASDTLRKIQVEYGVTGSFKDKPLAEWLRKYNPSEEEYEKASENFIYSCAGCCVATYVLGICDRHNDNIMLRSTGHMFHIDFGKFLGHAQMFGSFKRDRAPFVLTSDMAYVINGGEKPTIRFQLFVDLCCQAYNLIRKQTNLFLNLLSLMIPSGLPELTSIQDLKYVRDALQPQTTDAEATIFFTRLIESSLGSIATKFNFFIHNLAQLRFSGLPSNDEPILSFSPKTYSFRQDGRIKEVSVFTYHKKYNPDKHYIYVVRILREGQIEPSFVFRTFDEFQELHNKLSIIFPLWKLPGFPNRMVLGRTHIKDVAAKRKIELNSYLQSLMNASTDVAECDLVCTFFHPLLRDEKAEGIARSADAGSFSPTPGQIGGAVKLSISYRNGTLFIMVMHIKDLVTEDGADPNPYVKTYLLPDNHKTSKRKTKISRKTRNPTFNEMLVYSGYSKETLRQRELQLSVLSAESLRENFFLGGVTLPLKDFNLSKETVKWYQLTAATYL", "test": "Select Screen kinase profiling", "format": "biochemical", "excerpt": "(§1) The thieno[3,2-d]pyrimidine scaffold has been used extensively in the design of kinase inhibitors."}, "[5]": {"target": "PIK3C3 (Homo sapiens, UniProt Q8NEB9)", "test": "Select Screen kinase profiling", "format": "biochemical", "excerpt": "as §1"}, "[6]": {"target": "MET (cMet) (Homo sapiens, UniProt P08581)", "test": "Select Screen kinase profiling", "format": "biochemical", "excerpt": "as §1"}, "[7]": {"target": "SRC (Homo sapiens, UniProt P12931)", "test": "Select Screen kinase profiling", "format": "biochemical", "excerpt": "as §1"}, "[8]": {"target": "PIK3C2B (Homo sapiens, UniProt O00750)", "test": "Select Screen kinase profiling", "format": "biochemical", "excerpt": "as §1"}, "[9]": {"target": "T1, JAK2 JHI JH2 (Homo sapiens, UniProt O60674)", "T1 construct": "JAK2 JHI JH2", "test": "Select Screen kinase profiling", "format": "biochemical", "excerpt": "as §1"}, "[10]": {"target": "PIK3CD/PIK3R1 (Homo sapiens, UniProt O00329)", "test": "Select Screen kinase profiling", "format": "biochemical", "excerpt": "as §1"}, "[11]": {"target": "TYK2 (Homo sapiens, UniProt P29597)", "test": "Select Screen kinase profiling", "format": "biochemical", "excerpt": "as §1"}, "[12]": {"target": "JAK3 (Homo sapiens, UniProt P52333)", "test": "Select Screen kinase profiling", "format": "biochemical", "excerpt": "as §1"}, "[13]": {"target": "FRAP1 (mTOR) (Homo sapiens, UniProt P42345)", "test": "Select Screen kinase profiling", "format": "biochemical", "excerpt": "as §1"}, "[14]": {"target": "T2, JAK2 JH1 JH2 V617F (Homo sapiens, UniProt O60674, V617F)", "T2 construct": "JAK2 JH1 JH2 V617F", "test": "Select Screen kinase profiling", "format": "biochemical", "excerpt": "as §1"}, "[15]": {"target": "JAK2 (Homo sapiens, UniProt O60674)", "test": "Select Screen kinase profiling", "format": "biochemical", "excerpt": "as §1"}, "[16]": {"target": "JAK1 (Homo sapiens, UniProt P23458)", "test": "Select Screen kinase profiling", "format": "biochemical", "excerpt": "as §1"}, "[17]": {"target": "PRKCN (PKD3) (Homo sapiens, UniProt O94806)", "sequence (O94806 whole entry)": "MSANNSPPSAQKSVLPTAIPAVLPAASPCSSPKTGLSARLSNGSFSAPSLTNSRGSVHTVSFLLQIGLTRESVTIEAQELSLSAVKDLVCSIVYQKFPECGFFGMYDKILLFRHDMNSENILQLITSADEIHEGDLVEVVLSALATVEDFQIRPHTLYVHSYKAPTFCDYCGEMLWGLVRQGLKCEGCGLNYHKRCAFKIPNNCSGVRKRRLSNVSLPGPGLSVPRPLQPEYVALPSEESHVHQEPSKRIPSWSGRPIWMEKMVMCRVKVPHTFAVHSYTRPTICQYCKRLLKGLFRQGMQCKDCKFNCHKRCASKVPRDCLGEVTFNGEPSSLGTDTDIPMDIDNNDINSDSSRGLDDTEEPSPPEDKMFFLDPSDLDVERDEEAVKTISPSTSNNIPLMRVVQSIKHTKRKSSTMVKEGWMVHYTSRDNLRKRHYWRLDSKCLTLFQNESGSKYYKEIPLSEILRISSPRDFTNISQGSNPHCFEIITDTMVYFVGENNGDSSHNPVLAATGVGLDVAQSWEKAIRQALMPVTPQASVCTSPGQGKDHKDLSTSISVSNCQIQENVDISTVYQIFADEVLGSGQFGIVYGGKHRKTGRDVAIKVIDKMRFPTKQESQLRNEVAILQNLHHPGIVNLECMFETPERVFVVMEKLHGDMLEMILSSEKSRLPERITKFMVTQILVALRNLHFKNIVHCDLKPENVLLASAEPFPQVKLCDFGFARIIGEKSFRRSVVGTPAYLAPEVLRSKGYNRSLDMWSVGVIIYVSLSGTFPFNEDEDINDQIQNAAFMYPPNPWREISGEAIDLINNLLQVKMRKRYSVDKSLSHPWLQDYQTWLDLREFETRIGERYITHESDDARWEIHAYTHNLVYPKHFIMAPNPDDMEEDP", "test": "Select Screen kinase profiling", "format": "biochemical", "excerpt": "as §1"}, "[18]": {"target": "SRC N1 (Homo sapiens, UniProt P12931)", "sequence (P12931 1-542 isoform P12931-2)": "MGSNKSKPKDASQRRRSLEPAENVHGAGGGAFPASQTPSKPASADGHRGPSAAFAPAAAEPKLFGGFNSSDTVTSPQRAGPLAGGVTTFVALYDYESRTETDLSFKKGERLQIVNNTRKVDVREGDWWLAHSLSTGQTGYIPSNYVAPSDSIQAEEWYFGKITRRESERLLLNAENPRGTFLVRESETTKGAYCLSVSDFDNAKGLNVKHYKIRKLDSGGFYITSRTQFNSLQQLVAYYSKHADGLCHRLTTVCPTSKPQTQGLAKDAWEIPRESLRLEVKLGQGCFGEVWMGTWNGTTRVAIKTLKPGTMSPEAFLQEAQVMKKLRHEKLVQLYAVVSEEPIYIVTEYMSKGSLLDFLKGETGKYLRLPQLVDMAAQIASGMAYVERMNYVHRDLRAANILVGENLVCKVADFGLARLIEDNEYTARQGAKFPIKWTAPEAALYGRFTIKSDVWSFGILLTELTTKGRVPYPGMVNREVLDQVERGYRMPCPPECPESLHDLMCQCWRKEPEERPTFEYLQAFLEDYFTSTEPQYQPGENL", "test": "Select Screen kinase profiling", "format": "biochemical", "excerpt": "as §1"}, "[19]": {"target": "PIK3CG (Homo sapiens, UniProt P48736)", "test": "Select Screen kinase profiling", "format": "biochemical", "excerpt": "as §1"}, "[20]": {"target": "PRKD1 (PKC mu) (Homo sapiens, UniProt Q15139)", "test": "Select Screen kinase profiling", "format": "biochemical", "excerpt": "as §1"}, "[21]": {"target": "PIK3CA/PIK3R1 (Homo sapiens, UniProt P42336)", "sequence (P42336 whole entry)": "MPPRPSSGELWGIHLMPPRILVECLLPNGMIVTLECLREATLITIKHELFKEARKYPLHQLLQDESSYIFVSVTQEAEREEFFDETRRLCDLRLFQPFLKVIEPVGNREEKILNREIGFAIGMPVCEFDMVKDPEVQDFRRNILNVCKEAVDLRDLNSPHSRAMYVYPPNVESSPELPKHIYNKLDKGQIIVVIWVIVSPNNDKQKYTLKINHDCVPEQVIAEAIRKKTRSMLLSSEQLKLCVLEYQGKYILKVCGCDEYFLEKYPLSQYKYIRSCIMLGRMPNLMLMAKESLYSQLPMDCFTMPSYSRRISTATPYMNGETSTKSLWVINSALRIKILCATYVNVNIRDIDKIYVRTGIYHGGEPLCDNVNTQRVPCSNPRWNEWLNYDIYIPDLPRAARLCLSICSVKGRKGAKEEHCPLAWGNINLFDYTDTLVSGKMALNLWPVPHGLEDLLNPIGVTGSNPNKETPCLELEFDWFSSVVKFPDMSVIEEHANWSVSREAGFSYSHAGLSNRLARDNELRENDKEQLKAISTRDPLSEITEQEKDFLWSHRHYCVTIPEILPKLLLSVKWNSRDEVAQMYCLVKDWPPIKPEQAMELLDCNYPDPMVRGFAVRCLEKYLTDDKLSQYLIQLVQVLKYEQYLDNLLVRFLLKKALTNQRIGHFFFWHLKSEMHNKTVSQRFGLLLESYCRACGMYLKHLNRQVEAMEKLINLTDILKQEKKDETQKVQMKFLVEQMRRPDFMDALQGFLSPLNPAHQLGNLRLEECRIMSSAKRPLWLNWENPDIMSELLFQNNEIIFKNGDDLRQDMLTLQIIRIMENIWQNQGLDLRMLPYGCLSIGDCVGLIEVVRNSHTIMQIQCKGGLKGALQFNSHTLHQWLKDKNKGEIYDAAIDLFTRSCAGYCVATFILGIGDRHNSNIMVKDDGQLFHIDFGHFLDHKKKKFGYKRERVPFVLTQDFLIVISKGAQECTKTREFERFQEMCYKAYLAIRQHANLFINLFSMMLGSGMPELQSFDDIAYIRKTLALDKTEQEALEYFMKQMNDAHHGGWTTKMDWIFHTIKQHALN", "sequence (P27986 whole entry partner)": "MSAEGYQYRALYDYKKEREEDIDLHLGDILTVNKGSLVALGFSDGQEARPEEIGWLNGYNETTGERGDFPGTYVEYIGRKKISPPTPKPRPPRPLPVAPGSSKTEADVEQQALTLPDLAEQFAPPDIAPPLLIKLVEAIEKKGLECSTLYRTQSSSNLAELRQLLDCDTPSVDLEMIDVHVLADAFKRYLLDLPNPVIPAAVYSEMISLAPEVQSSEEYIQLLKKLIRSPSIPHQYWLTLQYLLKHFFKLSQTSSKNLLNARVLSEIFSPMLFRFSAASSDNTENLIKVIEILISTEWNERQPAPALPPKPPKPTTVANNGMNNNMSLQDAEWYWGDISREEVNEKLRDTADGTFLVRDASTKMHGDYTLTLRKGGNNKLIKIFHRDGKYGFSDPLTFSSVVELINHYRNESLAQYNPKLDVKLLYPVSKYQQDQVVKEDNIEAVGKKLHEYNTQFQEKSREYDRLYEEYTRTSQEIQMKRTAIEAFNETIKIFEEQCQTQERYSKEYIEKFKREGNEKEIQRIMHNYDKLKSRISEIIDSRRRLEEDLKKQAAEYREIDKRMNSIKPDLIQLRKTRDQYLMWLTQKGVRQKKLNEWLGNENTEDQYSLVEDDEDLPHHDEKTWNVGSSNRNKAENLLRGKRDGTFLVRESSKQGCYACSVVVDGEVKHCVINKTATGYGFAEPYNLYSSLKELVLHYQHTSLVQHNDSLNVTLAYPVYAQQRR", "test": "Select Screen kinase profiling", "format": "biochemical", "excerpt": "as §1"}, "[22]": {"target": "LTK (TYK1) (Homo sapiens, UniProt P29376)", "test": "Select Screen kinase profiling", "format": "biochemical", "excerpt": "as §1"}}, "data": [{"smiles": "Clc1nc(Cl)c2[nH]ccc2n1", "note": "[Compound 19, 2,4-Dichloropyrrolo[3,2-d]pyrimidine]", "values": [{"measurement": "annexin V-positive cells", "setting": "[1]", "value": "modest (although statistically significant) increase"}, {"measurement": "IC50", "setting": "[2]", "value": 19, "unit": "µM"}]}, {"smiles": "Clc1nc(Cl)c2scc(Br)c2n1", "note": "[Compound 2, 7-Bromo-2,4-dichlorothieno[3,2-d]pyrimidine]", "values": [{"measurement": "times more potent than compound 1", "setting": "[3]", "value": "2-5"}]}, {"smiles": "Clc1nc(Cl)c2sccc2n1", "note": "[Compound 1, 2,4-Dichlorothieno[3,2-d]pyrimidine]", "values": [{"measurement": "inhibition at 5 µM", "setting": "[4]", "value": "< 40", "unit": "%"}, {"measurement": "inhibition at 5 µM", "setting": "[5]", "value": "< 40", "unit": "%"}, {"measurement": "inhibition at 5 µM", "setting": "[6]", "value": "< 40", "unit": "%"}, {"measurement": "inhibition at 5 µM", "setting": "[7]", "value": "< 40", "unit": "%"}, {"measurement": "inhibition at 5 µM", "setting": "[8]", "value": "< 40", "unit": "%"}, {"measurement": "inhibition at 5 µM", "setting": "[9]", "value": "< 40", "unit": "%"}, {"measurement": "inhibition at 5 µM", "setting": "[10]", "value": "< 40", "unit": "%"}, {"measurement": "inhibition at 5 µM", "setting": "[11]", "value": "< 40", "unit": "%"}, {"measurement": "inhibition at 5 µM", "setting": "[12]", "value": "< 40", "unit": "%"}, {"measurement": "inhibition at 5 µM", "setting": "[13]", "value": "< 40", "unit": "%"}, {"measurement": "inhibition at 5 µM", "setting": "[14]", "value": "< 40", "unit": "%"}, {"measurement": "inhibition at 5 µM", "setting": "[15]", "value": "< 40", "unit": "%"}, {"measurement": "inhibition at 5 µM", "setting": "[16]", "value": "< 40", "unit": "%"}, {"measurement": "inhibition at 5 µM", "setting": "[17]", "value": "< 40", "unit": "%"}, {"measurement": "inhibition at 5 µM", "setting": "[18]", "value": "< 40", "unit": "%"}, {"measurement": "inhibition at 5 µM", "setting": "[19]", "value": "< 40", "unit": "%"}, {"measurement": "inhibition at 5 µM", "setting": "[20]", "value": "< 40", "unit": "%"}, {"measurement": "inhibition at 5 µM", "setting": "[21]", "value": "< 40", "unit": "%"}, {"measurement": "inhibition at 5 µM", "setting": "[22]", "value": "< 40", "unit": "%"}]}]}
